≈ marks a conversion by molar mass, not a printed value.
Tests used:
JAK2 = target: T1, JAK2 (Mus musculus, UniProt Q62120); experiment: JAKs cell activity test: JAK2_pSTAT5 in IL-3-induced BAF3 cells; type: cell-based; details: pSTAT5, IL-3-induced BAF3 cells
T1 construct: endogenous in cells; host or cells: BAF3
Experimental: (§1) THP1 cells were collected by centrifugation, resuspended with 1×HBSS, counted and diluted to a certain cell density. They were inoculated in a 384-well plate and cultured in a saturated humidity incubator with 37 °C and 5% CO2. The compound (DMSO final volume of 0.3%) was added to THP1 cells (10 doses in duplicates) and cultured in a saturated humidity incubator with 37 °C and 5% CO2. hIL-4 was added to stimulate cells and cultured in a saturated humidity incubator with 37 °C and 5% CO2. The lysis solution was added and incubated at room temperature. According to the instructions of AlphaLISA SureFire Ultra p-STAT6 detection kit, the lysis solution was transferred to pSTAT6 detection system, and the ALPHA signal was read by PE Envision microplate reader. The inhibition rate Inh%=((DMSO-sample)/(DMSO-background))×100 was calculated. IC50 was obtained by fitting with GraphPad Prism non-linear regression equation, and y=Bottom+(Top-Bottom)/(1+10^((LogIC50-x)×hillslope)), where x was the concentration of the compound and y was the inhibition rate.
(§2) JAK2_pSTAT5 was tesed in IL-3-induced BAF3 cells according to the above steps, and JAK3_pSTAT5 was tested in IL-2-induced CTLL-2 cells (without serum stimulation) according to the above steps.

TYK2 = TYK2 (Homo sapiens, UniProt P29597); experiment: experiment of inhibiting kinase activity, TYK2; type: biochemical; details: read-out: inhibition rate TYK2; for inhibition at 0.01 µM: at 10 nM; for inhibition at 0.1 µM: at 100 nM
Experimental: (§3) The inhibition rates of tested compounds on JAK1, JAK2, JAK3, TYK2, CDK7, CDK9, EGFR (T790M) and LRRK2 kinases were measured. The test concentrations of the compounds were 10 nM and 100 nM, and the detection was performed by replicate wells. Alternatively, compounds were 3-fold serial diluted from 10 µM for 10 concentrations in replicate wells.

JAK3 [1] = target: T2, JAK3 (Homo sapiens, UniProt P52333); experiment: experiment of inhibiting kinase activity (Caliper mobility shift assay), JAK3; type: biochemical; details: for IC50: kinase activity assay, Table 3
T2 sequence (P52333 1-1124): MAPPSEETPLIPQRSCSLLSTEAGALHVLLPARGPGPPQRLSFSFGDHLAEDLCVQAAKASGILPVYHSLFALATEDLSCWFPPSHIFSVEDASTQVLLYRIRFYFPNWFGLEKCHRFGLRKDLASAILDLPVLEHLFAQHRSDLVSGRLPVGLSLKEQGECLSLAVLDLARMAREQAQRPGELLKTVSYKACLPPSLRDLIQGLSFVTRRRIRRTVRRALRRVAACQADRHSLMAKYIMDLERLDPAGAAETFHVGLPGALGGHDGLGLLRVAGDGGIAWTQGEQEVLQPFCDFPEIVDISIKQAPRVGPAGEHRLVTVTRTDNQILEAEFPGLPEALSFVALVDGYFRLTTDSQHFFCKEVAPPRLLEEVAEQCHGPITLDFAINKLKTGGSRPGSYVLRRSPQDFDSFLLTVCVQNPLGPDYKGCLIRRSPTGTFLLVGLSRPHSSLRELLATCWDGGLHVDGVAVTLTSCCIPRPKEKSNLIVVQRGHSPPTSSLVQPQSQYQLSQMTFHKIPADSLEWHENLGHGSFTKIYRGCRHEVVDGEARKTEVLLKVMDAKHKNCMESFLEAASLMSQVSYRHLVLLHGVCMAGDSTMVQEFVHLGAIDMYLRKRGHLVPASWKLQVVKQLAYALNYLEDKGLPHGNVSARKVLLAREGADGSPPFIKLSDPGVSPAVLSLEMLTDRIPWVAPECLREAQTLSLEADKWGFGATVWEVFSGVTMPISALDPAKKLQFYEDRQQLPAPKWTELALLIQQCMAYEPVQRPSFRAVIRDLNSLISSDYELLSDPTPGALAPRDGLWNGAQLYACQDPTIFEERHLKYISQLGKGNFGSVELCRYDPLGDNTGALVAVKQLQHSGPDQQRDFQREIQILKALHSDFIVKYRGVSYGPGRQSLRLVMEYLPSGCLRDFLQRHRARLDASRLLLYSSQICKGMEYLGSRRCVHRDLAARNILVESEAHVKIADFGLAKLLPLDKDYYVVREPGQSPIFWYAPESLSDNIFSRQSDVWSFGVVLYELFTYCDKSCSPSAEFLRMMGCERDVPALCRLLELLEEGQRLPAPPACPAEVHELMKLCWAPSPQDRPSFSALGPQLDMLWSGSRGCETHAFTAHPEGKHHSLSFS
How it was run: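 Replicate wells; top concentration 10 µM, 3-fold steps, 10 points (or 10 nM/100 nM single doses). Enzyme preincubated 10 min RT with compound; ATP/substrate start; stop solution; Caliper conversion read. IC50 by Hill-slope curve fit.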

[2] = target: Wild-type EGFR kinase protein (Homo sapiens, UniProt P00533); experiment: experiment of inhibiting EGFR kinase activity (TR-FRET method); type: biochemical
Experimental: The inhibitory effect of the compounds on EGFR kinase activity was measured by TR-FRET method. The diluted solutions of the compounds were transfered to a 384-well plate (784075, Greiner), the plate was sealed and centrifuged at a speed of 1000 g for 1 minute. Wild-type EGFR kinase protein at 2-fold final concentration was prepared in 1×kinase buffer, 5 µL of wild-type EGFR at 2-fold final concentration was added to 384-well plate, the well plate was centrifuged at 1000 g for 30 seconds, and left at room temperature for 10 minutes. A mixture of 2-fold TK-substrate-biotin (2 µM) and ATP was prepared in 1×kinase buffer, and 5 µL of the mixture of 2×TK-substrate-biotin (2 µM) and ATP was added to start the reaction. The well plate was centrifuged at 1000 g for 30 seconds, sealed and left at room temperature for 40 minutes. […] The fluorescence signal values at 615 nm (Cryptate) and 665 nm (XL665) were detected by using Envision 2104 microplate reader. […] The IC50 was calculated with GraphPad 8.0 and the dose-reponse curve of the compound was plotted as follows: y=Bottom+(Top-Bottom)/(1+10^((logic50-x)×hillslope)), where x was logarithm of inhibitor concentration; and y was % inhibition rate.

EGFR (T790M) = EGFR (T790M) (Homo sapiens, UniProt P00533, T790M); experiment: experiment of inhibiting kinase activity, EGFR (T790M); type: biochemical; details: at 10 nM; read-out: inhibition rate EGFR(T790M)
Experimental: as §3

[3] = measurement of the solubility of compounds in water and diluted hydrochloric acid; type: physicochemical; details: thermodynamic from solid
Experimental: Example 117: measurement of the solubility of compounds in water and diluted hydrochloric acid
The compounds were dissolved in acetonitrile (LCMS pure) and prepared into standard samples having the concentration gradient of 1000 µg/mL, 500 µg/mL, 250 µg/mL, 125 µg/mL, 62.5 µg/mL, and 31.25 µg/mL.
(§4) About 1.0 mg of the powder of the compound to be tested was weighed and added to 0.3 mL of ultrapure water (pH-6), the resulting mixture was shaked thoroughly at room temperature overnight and centrifuged, and the supernatant was taken and diluted 10 times with acetonitrile. The sample was analyzed after mixing evenly.
as §4, with “153.8 µL of 6 M HCl was pipetted, 20 mL of water was added, and mixed evenly to prepare diluted hydrochloric acid solution A (pH-1.5). About” for “About”, “diluted hydrochloric acid solution A,” for “ultrapure water (pH-6),”, “for 1 hour” for “overnight”
The standard sample and the sample to be tested were analyzed by Shimadzu LCMS-2020, where chromatographic column was Skim-psck GIST 5 µm C18 2.1*[…]; mobile phase A was water and mobile phase B was methanol; and flow rate was 0.3 mL/min. The gradient of B was as the following: 0 min: 10%; 0-1.0 min: 10%; 1.0-2.5 min: 95%; 3.0-4.0 min: 95%; 4.0-4.1 min: 10%; 4.1-6.0 min: 10%.
The relationship between the concentration and peak area of the standard sample was ploted into a standard curve, and the concentration of the sample to be tested was calibrated using this standard curve. Compound solubility = concentration of the sample to be tested × 10 [formula]

JAK3 [4] = target: T3, JAK3 (Mus musculus, UniProt Q62137); experiment: JAKs cell activity test: JAK3_pSTAT5 in IL-2-induced CTLL-2 cells; type: cell-based; details: pSTAT5, IL-2-induced CTLL-2 cells
T3 construct: endogenous in cells; host or cells: CTLL-2
T3 sequence (Q62137 1-1100): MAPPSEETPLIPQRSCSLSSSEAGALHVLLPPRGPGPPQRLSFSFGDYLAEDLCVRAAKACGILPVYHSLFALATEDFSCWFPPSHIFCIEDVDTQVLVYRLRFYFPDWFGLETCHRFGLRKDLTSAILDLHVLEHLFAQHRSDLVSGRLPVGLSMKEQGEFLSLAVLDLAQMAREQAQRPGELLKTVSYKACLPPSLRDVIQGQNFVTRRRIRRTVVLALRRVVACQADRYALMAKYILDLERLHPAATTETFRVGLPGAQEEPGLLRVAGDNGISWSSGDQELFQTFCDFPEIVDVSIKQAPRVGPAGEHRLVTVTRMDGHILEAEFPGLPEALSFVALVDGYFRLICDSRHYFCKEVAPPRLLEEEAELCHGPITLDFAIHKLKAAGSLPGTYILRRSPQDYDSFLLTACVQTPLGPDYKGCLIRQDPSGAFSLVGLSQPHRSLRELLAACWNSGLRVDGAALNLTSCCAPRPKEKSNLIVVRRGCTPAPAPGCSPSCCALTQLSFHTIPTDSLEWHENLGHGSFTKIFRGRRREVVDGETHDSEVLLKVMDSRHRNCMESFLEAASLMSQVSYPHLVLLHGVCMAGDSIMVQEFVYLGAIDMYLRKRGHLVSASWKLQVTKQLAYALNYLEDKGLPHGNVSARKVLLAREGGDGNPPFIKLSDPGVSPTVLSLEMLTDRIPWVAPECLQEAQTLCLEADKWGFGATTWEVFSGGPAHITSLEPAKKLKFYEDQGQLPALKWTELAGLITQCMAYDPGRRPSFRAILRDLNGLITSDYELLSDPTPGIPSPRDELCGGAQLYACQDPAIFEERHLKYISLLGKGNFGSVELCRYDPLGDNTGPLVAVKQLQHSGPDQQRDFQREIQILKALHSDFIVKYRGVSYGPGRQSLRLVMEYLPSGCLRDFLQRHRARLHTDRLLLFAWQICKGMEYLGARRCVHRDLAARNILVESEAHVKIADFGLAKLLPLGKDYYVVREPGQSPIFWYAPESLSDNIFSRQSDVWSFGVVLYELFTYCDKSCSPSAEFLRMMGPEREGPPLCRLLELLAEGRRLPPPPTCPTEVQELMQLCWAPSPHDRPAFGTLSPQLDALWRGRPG
Experimental: as §1, §2

Sequence of TYK2 (P29597 whole entry): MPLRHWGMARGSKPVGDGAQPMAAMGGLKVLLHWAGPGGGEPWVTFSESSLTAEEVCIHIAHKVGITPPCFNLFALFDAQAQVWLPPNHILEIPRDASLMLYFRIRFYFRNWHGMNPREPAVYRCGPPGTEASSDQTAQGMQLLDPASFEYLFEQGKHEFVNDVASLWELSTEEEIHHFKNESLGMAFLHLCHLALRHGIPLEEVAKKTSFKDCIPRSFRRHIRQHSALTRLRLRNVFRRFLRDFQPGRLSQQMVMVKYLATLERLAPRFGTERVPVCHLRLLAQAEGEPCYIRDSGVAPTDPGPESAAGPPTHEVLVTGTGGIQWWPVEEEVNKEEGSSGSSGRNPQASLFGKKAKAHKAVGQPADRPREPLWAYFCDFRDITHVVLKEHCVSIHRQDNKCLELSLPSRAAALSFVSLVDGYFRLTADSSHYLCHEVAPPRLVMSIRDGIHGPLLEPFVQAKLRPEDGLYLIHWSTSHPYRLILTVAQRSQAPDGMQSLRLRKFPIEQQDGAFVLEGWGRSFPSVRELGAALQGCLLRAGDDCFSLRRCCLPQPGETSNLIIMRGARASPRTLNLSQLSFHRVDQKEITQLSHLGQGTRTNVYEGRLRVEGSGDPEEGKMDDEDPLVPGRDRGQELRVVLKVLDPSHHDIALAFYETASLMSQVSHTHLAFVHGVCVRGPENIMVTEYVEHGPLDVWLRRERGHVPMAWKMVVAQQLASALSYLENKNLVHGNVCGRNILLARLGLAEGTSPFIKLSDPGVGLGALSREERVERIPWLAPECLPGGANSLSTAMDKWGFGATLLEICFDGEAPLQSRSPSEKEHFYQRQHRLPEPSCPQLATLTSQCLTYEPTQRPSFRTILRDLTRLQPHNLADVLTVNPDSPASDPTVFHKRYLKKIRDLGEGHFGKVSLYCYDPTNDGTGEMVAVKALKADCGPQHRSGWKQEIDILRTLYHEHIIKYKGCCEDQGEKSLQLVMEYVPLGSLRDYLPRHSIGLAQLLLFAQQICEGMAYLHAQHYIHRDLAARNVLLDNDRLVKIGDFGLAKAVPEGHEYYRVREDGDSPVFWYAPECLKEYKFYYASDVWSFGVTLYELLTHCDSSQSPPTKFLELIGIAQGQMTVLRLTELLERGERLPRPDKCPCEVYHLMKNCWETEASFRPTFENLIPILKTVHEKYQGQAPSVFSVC
T1 sequence (Q62120 whole entry): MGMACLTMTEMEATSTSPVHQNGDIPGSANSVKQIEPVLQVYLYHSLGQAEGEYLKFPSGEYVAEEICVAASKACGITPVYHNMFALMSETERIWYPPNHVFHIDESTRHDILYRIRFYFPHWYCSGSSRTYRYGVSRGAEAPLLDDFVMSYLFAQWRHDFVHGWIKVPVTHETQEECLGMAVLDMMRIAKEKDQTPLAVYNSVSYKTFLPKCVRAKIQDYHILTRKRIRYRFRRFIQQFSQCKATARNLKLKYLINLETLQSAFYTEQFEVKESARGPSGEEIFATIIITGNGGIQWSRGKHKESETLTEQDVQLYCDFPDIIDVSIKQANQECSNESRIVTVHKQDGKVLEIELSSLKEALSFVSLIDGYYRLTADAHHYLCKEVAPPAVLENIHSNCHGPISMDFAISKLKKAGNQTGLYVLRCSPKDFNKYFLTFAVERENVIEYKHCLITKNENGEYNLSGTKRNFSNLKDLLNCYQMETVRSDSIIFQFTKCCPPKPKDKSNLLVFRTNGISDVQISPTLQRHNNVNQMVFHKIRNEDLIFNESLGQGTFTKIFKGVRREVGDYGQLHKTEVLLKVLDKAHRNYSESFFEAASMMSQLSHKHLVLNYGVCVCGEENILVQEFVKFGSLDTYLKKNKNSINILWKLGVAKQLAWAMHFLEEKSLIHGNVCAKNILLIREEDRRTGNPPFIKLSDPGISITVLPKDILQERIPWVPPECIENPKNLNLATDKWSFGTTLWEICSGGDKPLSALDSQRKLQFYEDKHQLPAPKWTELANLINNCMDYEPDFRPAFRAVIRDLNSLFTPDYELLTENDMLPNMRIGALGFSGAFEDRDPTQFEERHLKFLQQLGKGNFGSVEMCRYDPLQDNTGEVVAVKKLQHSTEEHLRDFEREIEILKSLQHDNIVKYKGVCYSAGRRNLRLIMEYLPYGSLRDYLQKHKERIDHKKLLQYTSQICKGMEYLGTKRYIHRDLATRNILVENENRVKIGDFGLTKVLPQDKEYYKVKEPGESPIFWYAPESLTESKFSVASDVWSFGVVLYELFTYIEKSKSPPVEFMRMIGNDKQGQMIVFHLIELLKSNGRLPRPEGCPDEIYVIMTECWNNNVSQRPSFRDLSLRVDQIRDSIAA
Sequence of Wild-type EGFR kinase protein (P00533 25-1210): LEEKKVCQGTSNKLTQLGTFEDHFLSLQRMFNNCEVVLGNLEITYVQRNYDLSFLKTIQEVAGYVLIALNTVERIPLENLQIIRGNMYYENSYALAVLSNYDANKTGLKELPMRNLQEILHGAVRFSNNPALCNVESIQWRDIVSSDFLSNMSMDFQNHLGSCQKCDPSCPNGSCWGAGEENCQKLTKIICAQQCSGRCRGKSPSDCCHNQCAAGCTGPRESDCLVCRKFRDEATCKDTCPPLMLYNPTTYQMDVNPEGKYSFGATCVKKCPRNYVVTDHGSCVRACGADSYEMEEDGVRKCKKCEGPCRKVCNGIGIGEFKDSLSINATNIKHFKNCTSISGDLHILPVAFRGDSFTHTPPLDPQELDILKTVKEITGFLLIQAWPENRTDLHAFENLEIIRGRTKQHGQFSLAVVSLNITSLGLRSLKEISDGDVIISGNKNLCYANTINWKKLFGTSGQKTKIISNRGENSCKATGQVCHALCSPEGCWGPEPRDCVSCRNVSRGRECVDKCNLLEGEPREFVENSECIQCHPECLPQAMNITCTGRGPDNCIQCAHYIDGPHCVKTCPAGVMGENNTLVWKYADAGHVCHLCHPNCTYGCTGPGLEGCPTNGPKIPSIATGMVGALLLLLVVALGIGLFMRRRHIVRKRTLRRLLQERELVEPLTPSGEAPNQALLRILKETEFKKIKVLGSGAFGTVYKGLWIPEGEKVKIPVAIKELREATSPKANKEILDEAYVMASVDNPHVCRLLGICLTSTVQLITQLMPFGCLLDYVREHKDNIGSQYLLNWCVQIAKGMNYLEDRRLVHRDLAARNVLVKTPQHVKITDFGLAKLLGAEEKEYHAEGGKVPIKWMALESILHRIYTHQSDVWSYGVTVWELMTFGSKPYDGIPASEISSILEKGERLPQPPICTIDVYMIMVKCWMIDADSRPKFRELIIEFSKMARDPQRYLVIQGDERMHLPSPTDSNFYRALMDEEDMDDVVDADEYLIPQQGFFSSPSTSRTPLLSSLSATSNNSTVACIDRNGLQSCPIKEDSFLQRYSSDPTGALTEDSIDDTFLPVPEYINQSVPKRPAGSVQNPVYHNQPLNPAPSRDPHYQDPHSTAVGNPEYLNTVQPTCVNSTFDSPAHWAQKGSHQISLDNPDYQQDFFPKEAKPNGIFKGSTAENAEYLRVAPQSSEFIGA
Sequence of EGFR (T790M) (P00533 25-1210 T790M): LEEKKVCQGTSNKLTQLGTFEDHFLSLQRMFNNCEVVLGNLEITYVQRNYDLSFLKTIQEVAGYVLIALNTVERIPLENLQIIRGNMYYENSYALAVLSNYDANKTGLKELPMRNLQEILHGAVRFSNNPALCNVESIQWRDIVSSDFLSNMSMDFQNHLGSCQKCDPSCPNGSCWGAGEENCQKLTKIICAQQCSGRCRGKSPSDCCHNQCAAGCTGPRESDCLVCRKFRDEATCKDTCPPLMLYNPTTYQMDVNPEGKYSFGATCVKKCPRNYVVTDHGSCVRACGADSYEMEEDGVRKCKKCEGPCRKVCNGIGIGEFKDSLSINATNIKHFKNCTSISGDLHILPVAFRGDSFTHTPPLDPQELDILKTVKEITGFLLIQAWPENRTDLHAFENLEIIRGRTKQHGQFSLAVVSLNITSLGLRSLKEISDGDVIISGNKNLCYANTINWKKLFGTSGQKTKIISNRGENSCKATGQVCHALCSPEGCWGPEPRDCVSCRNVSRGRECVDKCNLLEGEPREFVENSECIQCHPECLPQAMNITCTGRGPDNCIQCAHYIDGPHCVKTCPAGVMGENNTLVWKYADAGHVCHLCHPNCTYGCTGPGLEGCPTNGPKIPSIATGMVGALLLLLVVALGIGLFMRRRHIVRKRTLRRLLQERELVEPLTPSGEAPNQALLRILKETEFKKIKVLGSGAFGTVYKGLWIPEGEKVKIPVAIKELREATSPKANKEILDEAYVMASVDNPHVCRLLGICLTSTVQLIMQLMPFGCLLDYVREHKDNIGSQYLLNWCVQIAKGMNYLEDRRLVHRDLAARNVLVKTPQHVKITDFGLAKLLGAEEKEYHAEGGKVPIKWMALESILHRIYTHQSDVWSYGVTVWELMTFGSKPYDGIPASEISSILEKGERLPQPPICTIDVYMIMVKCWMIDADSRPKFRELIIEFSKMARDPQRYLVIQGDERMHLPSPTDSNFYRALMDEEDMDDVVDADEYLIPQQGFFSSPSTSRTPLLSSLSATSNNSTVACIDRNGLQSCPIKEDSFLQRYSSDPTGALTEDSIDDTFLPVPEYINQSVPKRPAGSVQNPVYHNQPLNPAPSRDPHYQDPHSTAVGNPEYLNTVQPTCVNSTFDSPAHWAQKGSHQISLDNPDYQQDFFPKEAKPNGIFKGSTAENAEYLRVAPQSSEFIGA

EC50 (JAK2) [µM]	inhibition at 0.01 µM (TYK2) [%]	inhibition at 0.1 µM (TYK2) [%]	inhibition at 0.01 µM (JAK3 [1]; at 10 nM, read-out: inhibition rate JAK3) [%]	inhibition at 0.1 µM (JAK3 [1]; at 100 nM, read-out: inhibition rate JAK3) [%]	IC50 (JAK3 [1]) [µM]	solubility at 1 h ([3]; simulated gastric fluid, diluted hydrochloric acid solution A (pH-1.5), room temperature, 1 hour) [µg/mL]	solubility ([3]; ultrapure water (pH-6), room temperature overnight) [µg/mL]	EC50 (JAK3 [4]) [µM]	Structure (SMILES)	IC50 [2] [µM]	inhibition at 0.01 µM (EGFR (T790M)) [%]
0.05 to 0.5	40 to 79	> 80	40 to 79	> 80	< 0.05				CN1CCOc2ccc(Nc3nc(-c4cnn(C(CC#N)C5CCCC5)c4)c4cc[nH]c4n3)cc2OCC1 (centres unmarked) [Example 27]		
									C=CC(=O)Nc1cccc(Nc2nc(Nc3ccc4c(c3)OCCN(C)CCOCCO4)ncc2Cl)c1 [Example 56, N-(3-((5-chloro-2-((7-methyl-2,3,6,7,8,9-hexahydro-5H-benzo[b][1,4,7]trioxa[10]azacyclododecan-12-yl)amino)pyrimidin-4-yl)amino)phenyl)acrylamide]	< 0.05	> 80
						> 3730	886 (≈ 1690 µM)	0.05 to 0.5	C=CC(=O)Nc1cccc(Nc2nc(Nc3ccc4c(c3)OCCOCCN(C)CCO4)ncc2Cl)c1 [Example 54, N-(3-((5-chloro-2-((7-methyl-2,3,6,7,8,9-hexahydro-5H-benzo[b][1,4,7]trioxa[10]azacyclododecan-13-yl)amino)pyrimidin-4-yl)amino)phenyl)acrylamide]	< 0.05	> 80
0.05 to 0.5	> 80	> 80			< 0.05				CCS(=O)(=O)N1CC(CC#N)(n2cc(-c3nc(Nc4ccc5c(c4)OCCN(C)CCO5)nc4[nH]ccc34)cn2)C1 [Example 28]		
